Source: ChEMBL document CHEMBL3112481, “Synthesis, nitric oxide release, and α-glucosidase inhibition of nitric oxide donating apigenin and chrysin derivatives” (Bioorg Med Chem, 2014)

What was measured:
[1] = Inhibition of alpha-glucosidase (unknown origin) assessed as hydrolysis of pNP-alpha-Glu into pNP measured for 10 mins by spectrophotometric analysis; parameters: species or system Homo sapiens
[2] = Induction of nitric oxide release at 10^-4 M after 1 hr by Griess assay in presence of L-cysteine relative to control; format: physicochemical; details: 100 µM
[3] = species on record: Homo sapiens; assay: Potency index, ratio of apigenin IC50 to compound IC50 for alpha-glucosidase (unknown origin)

SMILES | IC50 [1] | Activity [2] | Ratio IC50 [3]
O=C(COc1cc(O)c2c(=O)cc(-c3ccccc3)oc2c1)OCCCCO[N+](=O)[O-] | 14.1 µM |  | 
C[C@H]1O[C@H](O[C@H]2[C@H](O)[C@@H](O)[C@@H](O[C@H]3[C@H](O)[C@@H](O)C(O)O[C@@H]3CO)O[C@@H]2CO)[C@H](O)[C@@H](O)[C@@H]1N[C@H]1C=C(CO)[C@@H](O)[C@H](O)[C@H]1O (stereo partly drawn) [ACARBOSE] | 564 µM |  | 
O=C(COc1ccc(-c2cc(=O)c3c(O)cc(OCC(=O)OCCCCCCO[N+](=O)[O-])cc3o2)cc1)OCCCCCCO[N+](=O)[O-] | 2.57 µM | 1.147% | 
O=c1cc(-c2ccccc2)oc2cc(OCCO[N+](=O)[O-])cc(O)c12 | 30 µM |  | 
O=c1cc(-c2ccccc2)oc2cc(OCCCCO[N+](=O)[O-])cc(O)c12 | 18.7 µM |  | 
O=C(COc1ccc(-c2cc(=O)c3c(O)cc(OCC(=O)OCCCCO[N+](=O)[O-])cc3o2)cc1)OCCCCO[N+](=O)[O-] | 2.33 µM | 1.757% | 7.2
O=c1cc(-c2ccccc2)oc2cc(O)cc(O)c12 [CHRYSIN] | 77.7 µM |  | 
O=C(COc1ccc(-c2cc(=O)c3c(O)cc(OCC(=O)OCCO[N+](=O)[O-])cc3o2)cc1)OCCO[N+](=O)[O-] | 3.71 µM | 1.237% | 
O=c1cc(-c2ccc(OCCCCCCO[N+](=O)[O-])cc2)oc2cc(OCCCCCCO[N+](=O)[O-])cc(O)c12 | 4.59 µM | 0.49% | 
O=c1cc(-c2ccc(OCCCCO[N+](=O)[O-])cc2)oc2cc(OCCCCO[N+](=O)[O-])cc(O)c12 | 5.04 µM | 0.24% | 
O=C(COc1cc(O)c2c(=O)cc(-c3ccccc3)oc2c1)OCCO[N+](=O)[O-] | 24 µM |  | 
CC(=O)Oc1cc(OCCCCCCO[N+](=O)[O-])cc2oc(-c3ccccc3)cc(=O)c12 | > 100 µM |  | 
OC[C@H]1NC[C@H](O)[C@@H](O)[C@@H]1O [DUVOGLUSTAT] | 227 µM |  | 
O=[N+]([O-])OCC(CO[N+](=O)[O-])O[N+](=O)[O-] [NITROGLYCERIN] | > 180 µM | 5.14% | 
CC(=O)Oc1cc(OCCO[N+](=O)[O-])cc2oc(-c3ccccc3)cc(=O)c12 | > 100 µM |  | 
O=C(COc1cc(O)c2c(=O)cc(-c3ccccc3)oc2c1)OCCCCCCO[N+](=O)[O-] | 3.39 µM |  | 
O=c1cc(-c2ccc(OCCO[N+](=O)[O-])cc2)oc2cc(OCCO[N+](=O)[O-])cc(O)c12 | 7.78 µM | 0.3% | 
O=c1cc(-c2ccccc2)oc2cc(OCCCCCCO[N+](=O)[O-])cc(O)c12 | 21 µM |  | 
CC(=O)Oc1cc(OCCCCO[N+](=O)[O-])cc2oc(-c3ccccc3)cc(=O)c12 | > 100 µM |  | 
O=c1cc(-c2ccc(O)cc2)oc2cc(O)cc(O)c12 [APIGENIN] | 16.8 µM |  | 
